Reference: patent US10222368B2 (priority 2012, dated 2019)

Tests used:
[1] = target: FLNA pentapeptide VAKGL (SEQ ID NO: 1) (Homo sapiens, UniProt P21333); experiment: FITC-NLX-based FLNA screening assay; assay type: binding; conditions: for Percent Binding Inhibition (FITC-NLX binding to Bn-VAKGL): 10 nM FITC-NLX
mu opiate receptor (MOR) = target: T1, mu opiate receptor (MOR) (Rattus norvegicus, UniProt P33535); experiment: MOR agonist activity using [35S]GTPγS binding assay in striatal membranes; assay type: biochemical; conditions: for MOR agonist activity, [35S]GTPγS binding, FLNA-binding compound as agonist at 0.1 μM / MOR agonist activity, [35S]GTPγS binding, 1 μM + BFNA / MOR agonist activity, [35S]GTPγS binding, FLNA-binding compound as agonist at 1 μM: striatal membranes; for MOR agonist activity, [35S]GTPγS binding, FLNA-binding compound as agonist at 0.1 μM / MOR agonist activity, [35S]GTPγS binding, FLNA-binding compound as agonist at 1 μM: Series C-2; for MOR agonist activity, [35S]GTPγS binding, 1 μM + BFNA: 1 μM compound + 1 μM β-FNA (MOR antagonist); for % DAMGO + BFNA: 1 μM compound + BFNA relative to DAMGO + BFNA
T1 construct: from tissue; host or cells: striatal tissue (membrane preparation)
Procedure: To assess the mu opiate receptor (MOR) agonist activity of positive compounds from the FLNA screening, compounds were tested in a [^35S]GTPγS binding assay using striatal membranes. […] This assay measures a functional consequence of receptor occupancy at one of the earliest receptor-mediated events. The assay permits for traditional pharmacological parameters of potency, efficacy and antagonist affinity, with the advantage that agonist measures are not subjected to amplification or other modulation that may occur when analyzing parameters further downstream of the receptor.
Thus, striatal tissue was homogenized in 10 volumes of ice cold 25 mM HEPES buffer, pH 7.4, which contained 1 mM EGTA, 100 mM sucrose, 50 μg/ml leupeptin, 0.04 mM PMSF, 2 μg/ml soybean trypsin inhibitor and 0.2% 2-mercaptoethanol. The homogenates were centrifuged at 800×g for 5 minutes and the supernatants were centrifuged at 49,000×g for 20 minutes.
The resultant striatal membrane preparation (200 μg) was admixed and maintained (incubated) at 30° C. for 5 minutes in reaction buffer as above that additionally contained 1 mM MgCl2 and 0.5 nM [^35S]GTPγS (0.1 μCi/assay, PerkinElmer Life and Analytical Sciences) in a total volume of 250 μl and continued for 5 minutes in the absence or presence of 0.1-10 μM of an assayed compound of interest. The reaction was terminated by dilution with 750 μl of ice-cold reaction buffer that contained 20 mM MgCl2 and 1 mM EGTA and immediate centrifugation at 16,000×g for 5 minutes.
Normal rabbit serum (1 μl) was added to 1 ml of lysate and incubated at 25° C. for 30 minutes. Nonspecific immune complexes were removed by incubation with 25 μl of protein A/G-conjugated agarose beads at 25° C. for 30 minutes followed by centrifugation at 5,000×g at 4° C. for 5 minutes. The supernatant was divided and separately incubated at 25° C. for 30 minutes with antibodies raised against Gαo proteins (1:1,000 dilutions).
The immunocomplexes so formed were collected by incubation at 25° C. for 30 minutes with 40 μl of agarose-conjugated protein A/G beads and centrifugation at 5,000×g at 4° C. for 5 minutes. The pellet was washed and suspended in buffer containing 50 mM Tris-HCl, pH 8.0, and 1% NP-40. The radioactivity in the suspension was determined by liquid scintillation spectrometry.

[2] = Series C-1, 0.1 μM compound relative to DAMGO (0.1 μM)

T1 sequence (P33535 whole entry): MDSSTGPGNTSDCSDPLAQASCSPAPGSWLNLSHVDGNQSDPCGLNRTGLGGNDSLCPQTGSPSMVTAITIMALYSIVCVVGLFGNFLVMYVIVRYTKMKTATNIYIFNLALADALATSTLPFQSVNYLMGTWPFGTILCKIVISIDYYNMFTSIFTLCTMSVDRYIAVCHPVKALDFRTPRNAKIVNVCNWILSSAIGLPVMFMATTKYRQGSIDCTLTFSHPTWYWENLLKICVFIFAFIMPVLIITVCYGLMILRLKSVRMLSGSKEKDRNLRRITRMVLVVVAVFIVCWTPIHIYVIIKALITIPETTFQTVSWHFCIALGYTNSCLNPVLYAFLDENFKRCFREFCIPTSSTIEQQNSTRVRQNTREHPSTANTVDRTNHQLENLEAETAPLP

## O=C1CNC2(CCN(S(=O)(=O)c3ccc(O)cc3)CC2)N1Cc1ccccc1 [Compound C0148M]
[1]; 0.01 μM FLNA-binding compound
  Percent Binding Inhibition (FITC-NLX binding to Bn-VAKGL): 46.2%
[1]; 0.1 μM FLNA-binding compound
  Percent Binding Inhibition (FITC-NLX binding to Bn-VAKGL): 52.0%
[1]; 1 μM FLNA-binding compound
  Percent Binding Inhibition (FITC-NLX binding to Bn-VAKGL): 57.0%

## CO[C@]12CC[C@@]3(C[C@@H]1C(C)(O)C(C)(C)C)[C@H]1Cc4ccc(O)c5c4[C@@]3(CCN1CC1CC1)[C@H]2O5 (stereo partly shown) [Buprenorphine, reference compound]
[1]
  Binding to the FLNA pentapeptide of SEQ ID NO: 1 (in words): bind well

## Nalorphine [reference compound]
[1]
  Binding to the FLNA pentapeptide of SEQ ID NO: 1 (in words): bind well

## CC(=O)c1ccc(S(=O)(=O)N2CC(CN(C)C)OC23CCN(C)CC3)cc1 (stereo not shown) [Compound C0108M]
Mu opiate receptor (MOR); 0.1 μM compound
  MOR agonist activity, [35S]GTPγS binding, FLNA-binding compound as agonist at 0.1 μM: 205.6%
Mu opiate receptor (MOR)
  MOR agonist activity, [35S]GTPγS binding, 1 μM + BFNA: 76.9%
Mu opiate receptor (MOR); 1 μM compound
  MOR agonist activity, [35S]GTPγS binding, FLNA-binding compound as agonist at 1 μM: 258.5%

## CC(=O)c1ccc(S(=O)(=O)N2CC(CN(C)C)OC23CCN(CC2CC2)CC3)cc1 (stereo not shown) [Compound C0128M]
Mu opiate receptor (MOR); 0.1 μM compound
  MOR agonist activity, [35S]GTPγS binding, FLNA-binding compound as agonist at 0.1 μM: 197.8%
Mu opiate receptor (MOR)
  MOR agonist activity, [35S]GTPγS binding, 1 μM + BFNA: 63.9%
Mu opiate receptor (MOR); 1 μM compound
  MOR agonist activity, [35S]GTPγS binding, FLNA-binding compound as agonist at 1 μM: 286.0%

## CC(=O)c1ccc(S(=O)(=O)N2CCC3(CC2)OCCN3S(C)(=O)=O)cc1 [Compound C0056]
Mu opiate receptor (MOR); 0.1 μM compound, relative to DAMGO
  % DAMGO (0.1 μM): 68.0%
Mu opiate receptor (MOR); 0.1 μM compound
  MOR agonist activity, [35S]GTPγS binding, FLNA-binding compound as agonist at 0.1 μM: 98.6%
Mu opiate receptor (MOR)
  MOR agonist activity, [35S]GTPγS binding, 1 μM + BFNA: 86.3%
Mu opiate receptor (MOR); 1 μM compound, relative to DAMGO
  % DAMGO (1 μM): 83.0%
Mu opiate receptor (MOR); 1 μM compound
  MOR agonist activity, [35S]GTPγS binding, FLNA-binding compound as agonist at 1 μM: 193.4%

## CN1CC[C@]23c4c5ccc(O)c4O[C@H]2[C@@H](O)C=C[C@H]3[C@H]1C5 [morphine, reference compound]
[1]
  Binding to the FLNA pentapeptide of SEQ ID NO: 1 (in words): do not bind

## CCCCN1CCC2(CC1)OCCN2S(=O)(=O)c1ccc(OC)cc1 [Compound C0102M]
Mu opiate receptor (MOR); 0.1 μM compound
  MOR agonist activity, [35S]GTPγS binding, FLNA-binding compound as agonist at 0.1 μM: 131.8%
Mu opiate receptor (MOR)
  MOR agonist activity, [35S]GTPγS binding, 1 μM + BFNA: 150.4%
Mu opiate receptor (MOR); 1 μM compound
  MOR agonist activity, [35S]GTPγS binding, FLNA-binding compound as agonist at 1 μM: 272.0%

## COc1ccc(S(=O)(=O)N2CCOC23CCN(C(C)C)CC3)cc1 [Compound C0133M]
Mu opiate receptor (MOR); 0.1 μM compound
  MOR agonist activity, [35S]GTPγS binding, FLNA-binding compound as agonist at 0.1 μM: 139.4%
Mu opiate receptor (MOR)
  MOR agonist activity, [35S]GTPγS binding, 1 μM + BFNA: 72.4%
Mu opiate receptor (MOR); 1 μM compound
  MOR agonist activity, [35S]GTPγS binding, FLNA-binding compound as agonist at 1 μM: 214.8%

## O=[N+]([O-])c1ccc(S(=O)(=O)N2CCC3(CC2)NCCO3)cc1 [Compound C0040]
Mu opiate receptor (MOR); 0.1 μM compound
  MOR agonist activity, [35S]GTPγS binding, FLNA-binding compound as agonist at 0.1 μM: 145.8%
Mu opiate receptor (MOR)
  MOR agonist activity, [35S]GTPγS binding, 1 μM + BFNA: 90.4%
Mu opiate receptor (MOR); 1 μM compound
  MOR agonist activity, [35S]GTPγS binding, FLNA-binding compound as agonist at 1 μM: 308.3%

## CCN1CCC2(CC1)OCCN2S(=O)(=O)c1ccc(OC)cc1 [Compound C0089M]
Mu opiate receptor (MOR); 0.1 μM compound
  MOR agonist activity, [35S]GTPγS binding, FLNA-binding compound as agonist at 0.1 μM: 234.5%
Mu opiate receptor (MOR)
  MOR agonist activity, [35S]GTPγS binding, 1 μM + BFNA: 81.9%
Mu opiate receptor (MOR); 1 μM compound
  MOR agonist activity, [35S]GTPγS binding, FLNA-binding compound as agonist at 1 μM: 295.3%

## CC(=O)c1ccc(C(=O)N2CCC3(CC2)OCCN3C(=O)c2ccc(C(C)=O)cc2)cc1 [Compound C0054]
Mu opiate receptor (MOR); [2]
  % DAMGO (0.1 μM): 47.0%

## CC(C)c1ccc(S(=O)(=O)N2CCC3(CC2)OCCN3S(=O)(=O)c2ccc(C(C)C)cc2)cc1 [Compound C0007]
Mu opiate receptor (MOR); [2]
  % DAMGO (0.1 μM): 46.0%
Mu opiate receptor (MOR); Series C-1
  % DAMGO + BFNA: 17.0%

## O=S(=O)(c1ccc(OC(F)(F)F)cc1)N1CCC2(CC1)OCCN2S(=O)(=O)c1ccc(OC(F)(F)F)cc1 [Compound C0006]
Mu opiate receptor (MOR); Series C-1
  % DAMGO + BFNA: 7.2%

## O=C1CN(Cc2ccccc2)C2(CCN(C3CCCCC3)CC2)N1 [C0137M(P7)]
Mu opiate receptor (MOR); 0.1 μM compound
  MOR agonist activity, [35S]GTPγS binding, FLNA-binding compound as agonist at 0.1 μM: 180.8%
Mu opiate receptor (MOR)
  MOR agonist activity, [35S]GTPγS binding, 1 μM + BFNA: 55.8%
Mu opiate receptor (MOR); 1 μM compound
  MOR agonist activity, [35S]GTPγS binding, FLNA-binding compound as agonist at 1 μM: 193.8%

## COc1ccc(S(=O)(=O)N2CCOC23CCN(C)CC3)cc1 [Compound C0088M]
Mu opiate receptor (MOR); 0.1 μM compound
  MOR agonist activity, [35S]GTPγS binding, FLNA-binding compound as agonist at 0.1 μM: 276.3%
Mu opiate receptor (MOR)
  MOR agonist activity, [35S]GTPγS binding, 1 μM + BFNA: 177.1%
Mu opiate receptor (MOR); 1 μM compound
  MOR agonist activity, [35S]GTPγS binding, FLNA-binding compound as agonist at 1 μM: 355.3%

## N#Cc1ccc(S(=O)(=O)N2CCC3(CC2)OCCN3S(=O)(=O)c2ccc(C#N)cc2)cc1 [Compound C0008]
Mu opiate receptor (MOR); Series C-1
  % DAMGO + BFNA: 4.4%
